Test results taken from patent US20150299143A1, “SUBSTITUTED TRIAZOLE AND IMIDAZOLE COMPOUNDS” (HOFFMANN-LA ROCHE INC., priority 2012, published 2015).
Like-named read-outs stand apart in the source and are kept apart here.

What was measured:
[1] = molecular target: T1, β 5i (chymotrypsin-like activity) (Homo sapiens, UniProt P20618+P28062); experiment: Cell-Based Proteasome subunit activity/selectivity assay, β5i, substrate (ANW)2Rh110; details: Ramos cells; substrate (ANW)2Rh110 (β5i); highest concentration tested 20 μM; read-out: Ic50:ramos:ac-(anw)2-r110
T1 construct: protease activity associated with the proteasome complex in cultured cells; endogenous in cells; host or cells: Ramos cells
Excerpt: (§1) Cell-Based Proteasome Activity/Selectivity Assay
(§2) The Cell-Based Proteasome subunit activity/selectivity assay was a panel of 5 fluorogenic assays that independently measured the activity of β5c or β 5i (chymotrypsin-like activity), β 2c/2i (trypsin-like), and β 1c or β 1i (caspase-like) protease activity associated with the proteasome complex in cultured cells. Specifically, the following substrates were used for respective subunit activities: β 1i (PAL)2Rh110, β 1c: (LLE)2 Rh110, β 2c/2i: (KQL)2Rh110, β 5c: (WLA)2Rh110, β 5i: (ANW)2Rh110. The following procedure was followed:
(§3) Added 0.5 μl of 100× 4-fold serial diluted test compounds or DMSO to each well. Highest concentration of compound tested was 20 μM, thus compound serial dilution started from […]. Incubated for 30 minutes at 37° C. Then equilibrated at room temperature for 15 minutes. […] Shaked for one minute @ 700 rpm. Incubated for 120 min at room temperature. Then read the plates with an Envision multilabel plate reader (PerkinElmer) with 500 nm excitation/519 nm emission.

[2] = molecular target: T2, β5c (chymotrypsin-like activity) (Homo sapiens, UniProt P20618+P28074); experiment: Cell-Based Proteasome subunit activity/selectivity assay, β5c, substrate (WLA)2Rh110
T2 construct: protease activity associated with the proteasome complex in cultured cells; endogenous in cells; host or cells: Ramos cells
Excerpt: as §1, §2, §3

[3] = tested on: β 2c/2i (trypsin-like); experiment: Cell-Based Proteasome subunit activity/selectivity assay, β2c/2i, substrate (KQL)2Rh110; details: Ramos cells; substrate (KQL)2Rh110 (β2c/2i); highest concentration tested 20 μM
Excerpt: as §1, §2, §3

[4] = molecular target: T3, β 1i (caspase-like) (Homo sapiens, UniProt P28065+P40306); experiment: Cell-Based Proteasome subunit activity/selectivity assay, β1i, substrate (PAL)2Rh110
T3 construct: protease activity associated with the proteasome complex in cultured cells; endogenous in cells; host or cells: Ramos cells
Excerpt: as §1, §2, §3

[5] = molecular target: T4, β 1c (caspase-like) (Homo sapiens, UniProt P28072+Q99436); experiment: Cell-Based Proteasome subunit activity/selectivity assay, β1c, substrate (LLE)2Rh110
T4 construct: protease activity associated with the proteasome complex in cultured cells; endogenous in cells; host or cells: Ramos cells
Excerpt: as §1, §2, §3

[6] = Ramos cells, substrate (WLA)2Rh110 (β5c), highest concentration tested 20 μM, read-out: Ic50:ramos:rh110-(wla)2
[7] = Ramos cells, substrate (PAL)2Rh110 (β1i), highest concentration tested 20 μM, read-out: Ic50:ramos:rh110-(pal)2
[8] = Ramos cells, substrate (LLE)2Rh110 (β1c), highest concentration tested 20 μM, read-out: Ic50:ramos:rh110-(lle)2

Row | SMILES | IC50 [1] [µM] | IC50 [2, 6] [µM] | IC50 [3] [µM] | IC50 [4, 7] [µM] | IC50 [5, 8] [µM] | IC50 [2] [µM] | IC50 [4] [µM] | IC50 [5] [µM]
1 | COC(=O)[C@H](Cc1cc2ccccc2[nH]1)NC(=O)c1cn(CCNC(=O)c2ccc(C(F)(F)F)cc2F)nn1 [Example 84, (S)-2-({1-[2-(2-Fluoro-4-trifluoromethyl-benzoylamino)-ethyl]-1H-[1,2,3]triazole-4-carbonyl}-amino)-3-(1H-indol-2-yl)-propionic acid methyl ester] | 0.162 | ≥ 20 | ≥ 20 | ≥ 20 | ≥ 20 |  |  | 
2 | CC(CCc1ccccc1)NC(=O)c1cn(CCNC(=O)c2ccc(C(F)(F)F)cc2F)nn1 (stereo not drawn) [Example 79, 1-[2-(2-Fluoro-4-trifluoromethyl-benzoylamino)-ethyl]-1H-[1,2,3]triazole-4-carboxylic acid (1-methyl-3-phenyl-propyl)-amide] | 0.159 | 3.39 | ≥ 20 | 0.976 | ≥ 20 |  |  | 
3 | CC1=C(C(=O)NCCn2cc(C(=O)NC(C#N)c3ccc(C(F)(F)F)cc3)nn2)Cc2ccccc21 (stereo not drawn) [Example 70, 1-{2-[(3-Methyl-1H-indene-2-carbonyl)-amino]-ethyl}-1H-[1,2,3]triazole-4-carboxylic acid [cyano-(4-trifluoromethyl-phenyl)-methyl]-amide] | 0.445 | 10.8 | ≥ 20 | ≥ 20 | ≥ 20 |  |  | 
4 | COc1ccc(C(=O)NCCn2cc(C(=O)N[C@@H](CCc3ccccc3)C(=O)O)nn2)c(OC)c1OC [Example 83, (S)-4-Phenyl-2-({1-[2-(2,3,4-trimethoxy-benzoylamino)-ethyl]-1H-[1,2,3]triazole-4-carbonyl}-amino)-butyric acid] | 0.921 |  | ≥ 20 |  |  | 8.36 | ≥ 20 | ≥ 20
5 | CCc1ccc(C(C#N)NC(=O)c2nc(CCNC(=O)c3ccc(C(F)(F)F)cc3OC)n[nH]2)cc1 (stereo not drawn) [Example 90, 5-[2-(2-Methoxy-4-trifluoromethyl-benzoylamino)-ethyl]-2H-[1,2,4]triazole-3-carboxylic acid [cyano-(4-ethyl-phenyl)-methyl]-amide] | 0.014 | ≥ 20 | ≥ 20 | ≥ 20 | ≥ 20 |  |  | 
6 | CCc1ccc(C(C#N)NC(=O)c2nc(CCNC(=O)c3ccc(C(F)(F)F)cc3F)n[nH]2)cc1 (stereo not drawn) [Example 91, 5-[2-(2-Fluoro-4-trifluoromethyl-benzoylamino)-ethyl]-2H-[1,2,4]triazole-3-carboxylic acid [cyano-(4-ethyl-phenyl)-methyl]-amide] | 0.054 | ≥ 20 | ≥ 20 | ≥ 20 | ≥ 20 |  |  | 
7 | COc1ccc(C(=O)NCCn2cc(C(=O)NCc3ccc(SC)cc3)nn2)c(OC)c1OC [Example 6, 1-[2-(2,3,4-Trimethoxy-benzoylamino)-ethyl]-1H-[1,2,3]triazole-4-carboxylic acid 4-methylsulfanyl-benzylamide] | 0.919 | ≥ 20 | ≥ 20 | ≥ 20 | ≥ 20 |  |  | 

The remaining lines, values ahead:

Row | IC50 [1] [µM] | IC50 [2, 6] [µM] | IC50 [3] [µM] | IC50 [4, 7] [µM] | IC50 [5, 8] [µM] | IC50 [2] [µM] | IC50 [4] [µM] | IC50 [5] [µM] | SMILES
8 | 0.327 | 16.8 | ≥ 20 | ≥ 20 | ≥ 20 |  |  |  | COc1ccc(C(=O)NCCn2cc(C(=O)NC(C#N)c3ccc(Cl)cc3)nn2)c(OC)c1OC (stereo not drawn) [Example 68, 1-[2-(2,3,4-Trimethoxy-benzoylamino)-ethyl]-1H-[1,2,3]triazole-4-carboxylic acid [(4-chloro-phenyl)-cyano-methyl]-amide]
9 | 1.89 | ≥ 20 | ≥ 20 | ≥ 20 | ≥ 20 |  |  |  | CCc1ccc(C(C#N)NC(=O)c2cn(CCNC(=O)c3cccc4c3OCC4)nn2)cc1 (stereo not drawn) [Example 13, 1-{2-[(2,3-Dihydro-benzofuran-7-carbonyl)-amino]-ethyl}-1H-[1,2,3]triazole-4-carboxylic acid [cyano-(4-ethyl-phenyl)-methyl]-amide]
10 | 0.058 | ≥ 20 | ≥ 20 | ≥ 20 | ≥ 20 |  |  |  | CCc1ccc(C(C#N)NC(=O)c2cn(CCNC(=O)c3ccc(OC)c(OC)c3OC)nn2)cc1 (single isomer, unassigned) [Example 50]
11 | 0.028 | 16.2 | ≥ 20 | ≥ 20 | ≥ 20 |  |  |  | CCc1ccc(C(C#N)NC(=O)c2cn(CCNC(=O)c3ccc(C(F)(F)F)cc3OC)nn2)cc1 (stereo not drawn) [Example 23, 1-[2-(2-Methoxy-4-trifluoromethyl-benzoylamino)-ethyl]-1H-[1,2,3]triazole-4-carboxylic acid [cyano-(4-ethyl-phenyl)-methyl]-amide]
12 | 4.52 | ≥ 20 | ≥ 20 | ≥ 20 | ≥ 20 |  |  |  | CCc1ccc(C(C#N)NC(=O)c2cn(CCNC(=O)c3cc(Cl)ccn3)nn2)cc1 (stereo not drawn) [Example 27, 4-Chloro-pyridine-2-carboxylic acid [2-(4-{[cyano-(4-ethyl-phenyl)-methyl]-carbamoyl}-[1,2,3]triazol-1-yl)-ethyl]-amide]
13 | 0.017 | ≥ 20 | ≥ 20 | ≥ 20 | ≥ 20 |  |  |  | CCc1ccc(C(C#N)NC(=O)c2cn(CCNC(=O)c3ccc(C(F)(F)F)cc3F)nn2)cc1 (stereo not drawn) [Example 38, 1-[2-(2-Fluoro-4-trifluoromethyl-benzoylamino)-ethyl]-1H-[1,2,3]triazole-4-carboxylic acid [cyano-(4-ethyl-phenyl)-methyl]-amide]
14 | 0.404 | ≥ 20 | ≥ 20 | ≥ 20 | ≥ 20 |  |  |  | COc1ccc(C(=O)NCCn2cc(C(=O)NC(C#N)c3ccc(C)cc3)nn2)c(OC)c1OC (stereo not drawn) [Example 62, 1-[2-(2,3,4-Trimethoxy-benzoylamino)-ethyl]-1H-[1,2,3]triazole-4-carboxylic acid (cyano-p-tolyl-methyl)-amide]
15 | 0.127 | 8.31 | ≥ 20 | 10.1 | 9.68 |  |  |  | CCCc1ccc(C(C#N)NC(=O)c2cn(CCNC(=O)c3ccc(OC)c(OC)c3OC)nn2)cc1 (stereo not drawn) [Example 64, 1-[2-(2,3,4-Trimethoxy-benzoylamino)-ethyl]-1H-[1,2,3]triazole-4-carboxylic acid [cyano-(4-propyl-phenyl)-methyl]-amide]
16 | 1.02 | 6.78 | ≥ 20 | ≥ 20 | 17 |  |  |  | CCc1ccc(C(C#N)NC(=O)c2cn(CCNC(=O)c3cncc(Br)c3OC)nn2)cc1 (stereo not drawn) [Example 30, 5-Bromo-N-[2-(4-{[cyano-(4-ethyl-phenyl)-methyl]-carbamoyl}-[1,2,3]triazol-1-yl)-ethyl]-4-methoxy-nicotinamide]
17 | 0.101 | ≥ 20 | ≥ 20 | ≥ 20 | ≥ 20 |  |  |  | COc1ccc(C(=O)NCCn2cc(C(=O)NC(C#N)c3ccc(Br)cc3)nn2)c(OC)c1OC (stereo not drawn) [Example 54, 1-[2-(2,3,4-Trimethoxy-benzoylamino)-ethyl]-1H-[1,2,3]triazole-4-carboxylic acid [(4-bromo-phenyl)-cyano-methyl]-amide]
18 | 0.259 | ≥ 20 | ≥ 20 | ≥ 20 | ≥ 20 |  |  |  | CCc1ccc(C(C#N)NC(=O)c2cn(CCNC(=O)c3ccc(C)nc3OC)nn2)cc1 (stereo not drawn) [Example 34, N-[2-(4-{[Cyano-(4-ethyl-phenyl)-methyl]-carbamoyl}-[1,2,3]triazol-1-yl)-ethyl]-2-methoxy-6-methyl-nicotinamide]
